# From US20160067267A1, “MYO-INOSITOL TRISPYROPHOSPHATE AS AN ANTI-OBESITY AGENT” (NormOxys, Inc., priority 2013, published 2016)
# Columns and labels:
# [1] = Second study: prevention of weight gain on high fat diet, ITPP in drinking water, 70 days; format: in vivo; conditions: FIG. 2
# Procedure: (§1) Experiments were conducted in analogue ways. First, 30 Balb/c-mice, 10 mice in each group, were assessed. Group 1 was a control group; mice were fed with normal mouse food and water for the whole duration of the experiment (120 days). […] Group III was fed with high fat diet, normal food and, instead of normal water, animals drank an ITPP solution for the duration of the experiment of (ITPP). The concentration was 10 g ITPP per liter water, containing no calcium salt, pH˜6.8-7.2).
# (§2) The HFD was 235HF (U8955 version 9) casein 20%, corn starch 13%, sucrose 24.3%, cellulose 5%, malto dextrin 2.2%, lard 25%, soja oil 2.5%, mineral 205B SAFE 7%, and vitamine 200 SAFE 1%.
# (§3) All food, water, and ITPP were given ad libitum. In 5 days intervals, body weights from each animal were recorded.
# As before, in 5 days intervals body weights of the Balb/c-mice were measured.
# [2] = Third study: weight loss of overweight mice on normal food drinking ITPP solution, about 30 days; format: in vivo, Balb/c-mice; conditions: FIG. 3, normal mouse food, water with ITPP 10 g per liter
# Procedure: In a third study the group with the 10 mice which had gained weight (˜30%) was divided in two groups (5 animals per cage). For 1 month, one group drank water while the other one drank an ITPP-solution (10 g/L) for about 30 days until the date of observation. The food was normal mouse food as before (pellets from SAFE, France). The body weights of the mice were measured 4 times until the final day.
# [3] = First study: prevention of weight gain on high fat diet, ITPP in drinking water, 120 days; format: in vivo
# Procedure: as §1, §2, §3
compound,measurement,setting,value
"O=P1(O)OC2C3OP(=O)(O)OP(=O)(O)OC3C3OP(=O)(O)OP(=O)(O)OC3C2OP(=O)(O)O1 (stereo not drawn) [ITPP, inositol-tripyrophosphate]",tolerability of ITPP,[1]; HFD + ITPP 10 g/L in drinking water,tolerated very well
same,weight of Balb/c mice,"[1]; HFD/ITPP consumers, 10 g/L in drinking water, 70 days, HFD/water mice ~40 g",< 30 g
same,weight gain,"[1]; HFD/ITPP consumers, 70 days, HFD/water mice gained approximately 30%",did not gain significant weight
same,weight loss versus untreated group,[2],lost considerably more weight than the untreated group
same,weight of Balb/c mice,"[3]; FIG. 1, HFD + ITPP solution 10 g per liter water ad libitum, oral, 70 days after beginning, HFD/water mice ~40 g",~30 g
same,tolerability of ITPP solution,"[3]; FIG. 1, HFD + ITPP solution 10 g/L ad libitum, oral",well tolerated
same,"first day with significant differences in weight, HFD/water versus HFD/ITPP",[3]; HFD + ITPP in water versus HFD + water,10 days
same,weight increase of ITPP drinking group on HFD,"[3]; HFD + ITPP in water, whole period of the experiment, compared with normal-food control group",did not increase their weight at all
same,mortality and general condition,"[3]; orally offered ITPP solution with HFD, two periods (120 days and 70 days), fur, eyes, vitality normal",No animal died or was suffering
